± gives the standard deviation of the reports.
Row | Structure (SMILES) | glass transition temperature
1 | *CCCCCCC(=O)Oc1ccc(-c2ccc(OC(=O)c3ccc4c(c3)C(=O)N(*)C4=O)cc2)cc1 (repeat unit) | 107.00 °C
2 | *CC1CC2CC1C1CCC(Cn3c(=O)c4cc5c(=O)n(*)c(=O)c5cc4c3=O)C21 (repeat unit) | 265.00 °C
3 | *c1ccc2c(c1)C(=O)N(c1cc(C(c3ccc(OC(C)=O)c(N4C(=O)c5ccc(C(*)(C(F)(F)F)C(F)(F)F)cc5C4=O)c3)(C(F)(F)F)C(F)(F)F)ccc1OC(C)=O)C2=O (repeat unit) | 266.50 °C
4 | */C=C(/*)c1c(F)c(F)c(CCCC)c(F)c1F (repeat unit) | 110.00 °C
5 | *Oc1ccc(Oc2ccc(C(=O)c3ccc(*)cc3)cc2)cc1-c1cc(C)cc(C)c1 (repeat unit) | 162.00 °C
6 | *CCOC(=O)c1ccc(-c2ccc(C(=O)O*)cc2)cc1 (repeat unit) | 40.00 °C
7 | *c1ccc(Oc2ccccc2Oc2ccc(-n3c(=O)c4cc5c(=O)n(*)c(=O)c5cc4c3=O)cc2C(F)(F)F)c(C(F)(F)F)c1 (repeat unit) | 277.00 °C
8 | */C=C/c1cccc(/C=C/[Si](C)(C)c2ccc([Si](*)(C)C)cc2)c1 (repeat unit) | 38.10 °C
9 | *CC(*)C(=O)c1ccc(C(C)(C)C)cc1 (repeat unit) | 103.50 °C
10 | *Oc1ccc(/C(=N/c2ccc(/N=C(\c3ccccc3)c3ccc(Oc4ccc(C(C)(C)c5ccc(*)cc5)cc4)cc3)cc2)c2ccccc2)cc1 (repeat unit) | 161.00 °C
11 | *c1ccc(-c2nnc(*)o2)c(OCCCCCCCC)c1 (repeat unit) | 173.00 °C
12 | *CC(*)(CC(=O)OC1CCCCCCC1)C(=O)OC1CCCCCCC1 (repeat unit) | 124.00 °C
13 | *O[Si](C)(C)Oc1ccc(C(C)(C)c2ccc(*)cc2)cc1 (repeat unit) | 45.00 °C
14 | *O[Si](C)(C)O[Si](C)(C)OC(C)CCC(*)C (repeat unit) | -83.00 °C
15 | *C(=O)c1ccc2c(c1)C(=O)N(c1ccc(Oc3cccc(Oc4ccc(N5C(=O)c6ccc(*)cc6C5=O)cc4)c3C#N)cc1)C2=O (repeat unit) | 245.00 °C
16 | *C1(C)CC(*)(C)C(=O)N(C)C1=O (repeat unit) | 170.00 °C
17 | */C=C/C(C)C(*)C(=O)OC12CC3CC(CC(C3)C1)C2 (repeat unit) | 115.00 °C
18 | *Nc1ccc(Cc2ccc(NC(=O)NCCCCCCCCCCNC(*)=O)cc2)cc1 (repeat unit) | 46.00 °C
19 | *CCN(*)C(=O)c1c(F)c(F)c(F)c(F)c1F (repeat unit) | 136.00 °C
20 | *Oc1ccc(NC(=O)CCCCCCCCC(=O)Nc2ccc(*)cc2)cc1 (repeat unit) | 160.00 °C
21 | *O[Si](C)(C)c1cccc2c([Si](*)(C)C)cccc12 (repeat unit) | 62.00 °C
22 | *c1ccc(Oc2ccc(C(=O)c3ccc(Oc4ccc(C5(*)c6ccccc6C(=O)N5C)cc4)cc3)cc2)cc1 (repeat unit) | 245.00 °C
23 | *C(=O)NCCCCCCNC(=O)c1ccc(*)nc1 (repeat unit) | 80.00 °C
24 | *CCOCCOC(=O)CCSCCC(=O)O* (repeat unit) | -33.00 °C
25 | *CCOCCOCCN1C(=O)c2ccc(C(=O)Oc3ccc4cc(OC(=O)c5ccc6c(c5)C(=O)N(*)C6=O)ccc4c3)cc2C1=O (repeat unit) | 105.00 °C

Row | Structure (SMILES) | glass transition temperature
26 | *CCCCCCCCCCCc1nc2ccc(-c3ccc4nc(*)oc4c3)cc2o1 (repeat unit) | 62.00 °C
27 | *CCCCCCCN1C(=O)c2ccc(C(=O)Oc3ccc(-c4ccc(OC(=O)c5ccc6c(c5)C(=O)N(*)C6=O)cc4)cc3)cc2C1=O (repeat unit) | 117.00 °C
28 | *CC(*)C(=O)OCCCC (repeat unit) [Poly(tert-butyl acrylate)] | -51.58 ± 45 °C
29 | *c1cc(C(=O)OCC(F)(F)C(F)(F)C(F)(F)F)c(*)s1 (repeat unit) | 129.00 °C
30 | *c1cc(C(=O)OCCCCCC)cc(N2C(=O)CC(C3Cc4ccccc4C4C(=O)N(*)C(=O)C43)C2=O)c1 (repeat unit) | 187.00 °C
31 | *CCCNC(=O)O* (repeat unit) | 26.00 °C
32 | *C(=O)Nc1ccc(S(=O)(=O)c2ccc(NC(=O)c3ccc4c(c3)C(=O)N(c3cc(-c5nc6ccccc6o5)cc(N5C(=O)c6ccc(*)cc6C5=O)c3)C4=O)cc2)cc1 (repeat unit) | 367.00 °C
33 | *Oc1ccc(S(=O)(=O)c2ccc(Oc3ccc(C(=O)c4cc(Br)cc(C(=O)c5ccc(*)cc5)c4)cc3)cc2)cc1 (repeat unit) | 192.00 °C
34 | *c1ccc2c(c1)C(=O)N(c1ccc(Oc3ccc4ccc(Oc5ccc(N6C(=O)c7ccc(C(*)(C(F)(F)F)C(F)(F)F)cc7C6=O)cc5)cc4c3)cc1)C2=O (repeat unit) | 302.30 °C
35 | *Oc1ccc(C2(c3ccc(OC(=O)CCCC(*)=O)cc3)c3cc(OC)ccc3-c3ccc([N+](=O)[O-])cc32)cc1 (repeat unit) | 197.00 °C
36 | *CC(*)(C)C(=O)OCCOc1ccc(C(=O)Oc2ccc(OCCCC)cc2)cc1 (repeat unit) | 137.00 °C
37 | *CC(*)c1ccc(CCCCCC)cc1 (repeat unit) | -27.00 °C
38 | *C(=O)Nc1ccc(NC(=O)Nc2ccc(NC(=O)c3ccc4c(c3)C(=O)N(c3ccc(NC(=O)Nc5ccc(N6C(=O)c7ccc(*)cc7C6=O)cc5)cc3)C4=O)cc2)cc1 (repeat unit) | 208.00 °C
39 | *CC(*)c1cc(Br)ccc1OC (repeat unit) | 86.00 °C
40 | *c1ccc(CC(=O)Nc2ccc(-c3ccc(NC(=O)Cc4ccc(-c5sc(*)c(-c6ccccc6)c5-c5ccccc5)cc4)cc3)cc2)cc1 (repeat unit) | 272.00 °C
41 | *c1ccc(Oc2ccc(Oc3ccc(N4C(=O)c5ccc(Oc6ccc7ccc(Oc8ccc9c(c8)C(=O)N(*)C9=O)cc7c6)cc5C4=O)cc3)cc2)cc1 (repeat unit) | 228.00 °C
42 | *CC(*)C(=O)OCCO (repeat unit) | 20.70 °C
43 | *O[Si](*)(C)CCCOCCOCCOC (repeat unit) | -90.10 °C
44 | *Oc1ccc(Oc2ccc(C(=O)c3ccc(C(=O)c4ccc(*)cc4)cc3)cc2)cc1-c1cccc(C)c1 (repeat unit) | 159.00 °C
45 | *Oc1ccc(CC2(Cc3ccc(*)cc3)c3ccccc3-c3ccccc32)cc1 (repeat unit) | 138.00 °C
46 | */C=C/c1ccc(/C=C/c2ccc3c(c2)Sc2cc(*)ccc2N3c2ccc(OCCCCCCCCCCCC)cc2)cc1 (repeat unit) | 167.00 °C
47 | *O[Si](C)(CCC(F)(F)F)CCC(F)(F)CC[Si](*)(C)CCC(F)(F)F (repeat unit) | -38.00 °C
48 | *Oc1ccc(C(=O)OCCCCOC(=O)c2ccc(*)cc2)cc1 (repeat unit) | 38.00 °C
49 | *CCOCCOC(=O)C(CCC)C(=O)O* (repeat unit) | -38.00 °C
50 | *c1cccc(-c2nc3cc4nc(*)c(-c5ccccc5)nc4cc3nc2-c2ccccc2)c1 (repeat unit) | 365.00 °C

From the PolyMetriX glass transition set
